Consider 18 molecules from patent US8399465B2, “Compounds with two fused bicyclic heteroaryl moieties as modulators of leukotriene A4 hydrolase” (Janssen Pharmaceutica NV, priority 2009, dated 2013).

Assay [1] has as its target T1, recombinant human LTA4 hydrolase (rhLTA4H) (Homo sapiens, UniProt P09960).
T1 construct: made in house; host or cells: Spodoptera frugiperda (Sf-9) cells, baculovirus (pFastBac1)
T1 sequence (P09960 1-611): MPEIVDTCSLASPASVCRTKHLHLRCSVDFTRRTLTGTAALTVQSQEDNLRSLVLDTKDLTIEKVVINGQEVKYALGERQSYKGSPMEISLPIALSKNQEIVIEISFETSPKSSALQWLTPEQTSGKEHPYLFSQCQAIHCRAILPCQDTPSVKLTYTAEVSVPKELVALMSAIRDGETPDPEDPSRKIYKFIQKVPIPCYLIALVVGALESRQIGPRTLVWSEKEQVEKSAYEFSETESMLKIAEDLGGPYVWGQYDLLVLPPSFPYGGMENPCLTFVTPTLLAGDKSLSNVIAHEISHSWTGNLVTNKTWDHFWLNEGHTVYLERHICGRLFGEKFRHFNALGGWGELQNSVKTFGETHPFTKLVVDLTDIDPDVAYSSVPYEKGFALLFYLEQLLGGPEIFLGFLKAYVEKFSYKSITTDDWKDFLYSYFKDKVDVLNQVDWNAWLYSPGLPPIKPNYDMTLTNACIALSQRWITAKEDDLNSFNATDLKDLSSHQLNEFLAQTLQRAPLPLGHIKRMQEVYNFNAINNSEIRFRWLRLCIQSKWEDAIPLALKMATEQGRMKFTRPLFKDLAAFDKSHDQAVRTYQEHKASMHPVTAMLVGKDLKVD
As to the kind of experiment: Recombinant human LTA4 hydrolase assay for LTA4 hydrolase inhibitor activity. It is filed as biochemical. A digest of the protocol:
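LTB4 formation, measured by enzyme immunoassay, was the read-out. The enzyme, recombinant human LTA4H expressed in Sf-9 insect cells (10 ng per reaction), was exposed to compound for 10 min at room temperature before hydrolysed-ester LTA4 substrate was added for 30 min. Enzyme-free negatives were included.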

In assay [2] the test system is LTB4 production in murine blood (LTA4H). Nature of the assay: LTB4 production by calcium ionophore-stimulated murine blood for LTA4H inhibitor activity. It is filed as cell-based, CD-1 mice. To be noted: Mus musculus. A digest of the protocol: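 LTB4 was measured by ELISA in supernatants after calcium ionophore A23187 stimulation (final 7 μg/mL, 30 min, 37° C) of CD-1 mouse blood collected on heparin. Compound was preincubated with the blood for 15 min beforehand. Values come from one determination or average several.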

For assay [3], the system named is arachidonic acid-induced neutrophil influx in murine ear tissue. As to the kind of experiment: Murine arachidonic acid-induced inflammation model: neutrophil influx (myeloperoxidase) in ear. It is filed as in vivo, Balb/c mice. Particulars: Mus musculus, read-out: % Inh. MPO.
Assay [4] has as its system ex vivo calcium ionophore-stimulated LTB4 production in whole blood. As to the kind of experiment: Murine arachidonic acid-induced inflammation model: ex vivo stimulated LTB4 production in blood. Further details: species or system Balb/c mice. To be noted: Mus musculus; 30 mg/kg oral gavage; blood diluted 1:1, A23187 stimulated ex vivo; percent inhibition of LTB4 production; read-out: % Inh. LTB4.

The mark [5] stands for this setting: rhLTA4H, LTB4 by immunoassay, single determination or average of two or more, mark after value = form tested: ′ free base, ″ hydrochloride, ^ formate, read-out: IC50.
Where [6] appears, read: murine blood diluted 1 in 15, A23187 stimulated, single determination or average, mark after value = form tested: ′ free base, ″ hydrochloride, ^ formate, read-out: IC50.
[7] abbreviates: 30 mg/kg oral gavage, 60 min before topical arachidonic acid, ear biopsy after 3 h, percent inhibition of neutrophil influx.

Where a name gives a salt, the structure may show the parent alone. Read-outs that look alike come from different tables or passages of the source.

In general, IC50 refers to the concentration that inhibits the measured activity by half.

Turning to `NC(=O)C1CCCN(Cc2coc3cc(Oc4nc5ncccc5s4)ccc23)C1` (stereo in doubt) [Example 216, (3S)-1-[6-(Thiazolo[4,5-b]pyridin-2-yloxy)-benzofuran-3-ylmethyl]-piperidine-3-carboxylic acid amide], the IC50 in assay [1] (setting [5]) stood at 3 nM; in assay [2] (setting [6]), 28 nM. Further, the inhibition at 30 mg/kg in assay [3] (setting [7]) and in assay [4] was 87% throughout.
As to `CC(=O)N1C[C@H]2CC[C@@H](C1)N2Cc1coc2cc(Oc3nc4ncccc4s3)ccc12` [Example 153, 1-{8-[6-(Thiazolo[4,5-b]pyridin-2-yloxy)-benzofuran-3-ylmethyl]-3,8-diaza-bicyclo[3.2.1]oct-3-yl}-ethanone], the figures for the IC50 in assay [1] (setting [5]) and in assay [2] (setting [6]) were 2 nM and 25 nM, respectively. Also, the inhibition at 30 mg/kg in assay [3] (setting [7]) worked out at 82%; in assay [4] it was 84%.
Take `CS(=O)(=O)C1CCN(Cc2coc3cc(Oc4nc5ncccc5s4)ccc23)CC1` [Example 183, 2-[3-(4-Methanesulfonyl-piperidin-1-ylmethyl)-benzofuran-6-yloxy]-thiazolo[4,5-b]pyridine]: the IC50 was found to be 6 nM in assay [1] (setting [5]) and 57 nM in assay [2] (setting [6]). Further, the inhibition at 30 mg/kg is 85% in assay [3] (setting [7]) and 83% in assay [4].
The corresponding values for `CC(=O)N(C)C1CCN(Cc2coc3cc(Oc4nc5ncccc5s4)ccc23)C1` (stereo not drawn) [Example 309, N-Methyl-N-{1-[6-(thiazolo[4,5-b]pyridin-2-yloxy)-benzofuran-3-ylmethyl]-pyrrolidin-3-yl}-acetamide] are 5 nM, 66 nM, 81% and 70%.
For `c1cnc2nc(Oc3ccc4c(CN5CCOCC5)coc4c3)sc2c1` [Example 156, 2-(3-Morpholin-4-ylmethyl-benzofuran-6-yloxy)-thiazolo[4,5-b]pyridine], in that order: 17 nM, 21 nM, 86% and 91%.
For the molecule `NC(=O)C1CCN(Cc2coc3cc(Oc4nc5ncccc5s4)ccc23)CC1` [Example 213, 1-[6-(Thiazolo[4,5-b]pyridin-2-yloxy)-benzofuran-3-ylmethyl]-piperidine-4-carboxylic acid amide], the values for the IC50 in assay [1] (setting [5]) and in assay [2] (setting [6]) were 5 nM and 25 nM, respectively. The inhibition at 30 mg/kg in assay [3] (setting [7]) was determined as 92%; in assay [4] it was 80%.
As to `O=C(c1coc2cc(Oc3nc4ncccc4s3)ccc12)N1CCC(N2CCCC2=O)CC1` [Example 370, 1-{1-[6-(Thiazolo[4,5-b]pyridin-2-yloxy)-benzofuran-3-carbonyl]-piperidin-4-yl}-pyrrolidin-2-one], the IC50 came to 9 nM in assay [1] (setting [5]) and 30 nM in assay [2] (setting [6]). Besides, the inhibition at 30 mg/kg worked out at 69% in assay [3] (Neutrophil) and 78% in assay [4].
Take `CC(=O)N[C@H]1C[C@H]2CC[C@@H](C1)N2Cc1coc2cc(Oc3nc4ncccc4s3)ccc12` [Example 155, meso-endo-N-{8-[6-(Thiazolo[4,5-b]pyridin-2-yloxy)-benzofuran-3-ylmethyl]-8-aza-bicyclo[3.2.1]oct-3-yl}-acetamide]: the IC50 in assay [1] came to 2 nM; in assay [2] (setting [6]) it was 9 nM. The inhibition at 30 mg/kg in assay [3] (setting [7]) turned out to be 88%; in assay [4], 85%.
Regarding `CC(=O)N[C@H]1C[C@@H]2C[C@H]1CN2Cc1coc2cc(Oc3nc4ncccc4s3)ccc12` [Example 187, (1S,4S,5S)—N-{2-[6-(Thiazolo[4,5-b]pyridin-2-yloxy)-benzofuran-3-ylmethyl]-2-aza-bicyclo[2.2.1]hept-5-yl}-acetamide], the figures for the IC50 in assay [1] (setting [5]) and in assay [2] (setting [6]) were 1 nM and 21 nM, respectively. The inhibition at 30 mg/kg in assay [3] (setting [7]) turned out to be 88%; in assay [4], 83%.
In the case of `O=C(O)C1CCN(Cc2coc3cc(Oc4nc5ccccc5s4)ccc23)CC1` [Example 248, 1-[6-(Benzothiazol-2-yloxy)-benzofuran-3-ylmethyl]-piperidine-4-carboxylic acid formate], the IC50 stood at 12 nM in assay [1] (setting [5]) and 20 nM in assay [2]. Further, the inhibition at 30 mg/kg was found to be 90% in assay [3] (Neutrophil) and 83% in assay [4].
As to `CN(Cc1ccncc1)Cc1coc2cc(Oc3nc4ncccc4s3)ccc12` [Example 177, Methyl-pyridin-4-ylmethyl-[6-(thiazolo[4,5-b]pyridin-2-yloxy)-benzofuran-3-ylmethyl]-amine], the IC50 in assay [1] (setting [5]) stood at 13 nM; in assay [2] (setting [6]), 110 nM. The inhibition at 30 mg/kg amounted to 12% in assay [3] (setting [7]) and 70% in assay [4].
With `CC(=O)N1C[C@H]2C[C@@H]1CN2Cc1cc2ccc(Oc3nc4ncccc4s3)cc2o1` [Example 107, (1R,4R)-1-{5-[6-(Thiazolo[4,5-b]pyridin-2-yloxy)-benzofuran-2-ylmethyl]-2,5-diaza-bicyclo[2.2.1]hept-2-yl}-ethanone], the IC50 in assay [1] (setting [5]) was determined as 65 nM; in assay [2] (setting [6]), 276 nM. Moreover, the inhibition at 30 mg/kg in assay [3] (setting [7]) amounted to 82%; in assay [4], 75%.
Consider `NC(=O)N1C[C@@H]2CC[C@H]1CN2Cc1coc2cc(Oc3nc4ncccc4s3)ccc12` [Example 241, (1S,4S)-5-[6-(Thiazolo[4,5-b]pyridin-2-yloxy)-benzofuran-3-ylmethyl]-2,5-diaza-bicyclo[2.2.2]octane-2-carboxylic acid amide formate], for which the IC50 turned out to be 4 nM in assay [1] (setting [5]) and 69 nM in assay [2] (setting [6]). For the same molecule, the inhibition at 30 mg/kg is 85% in assay [3] (Neutrophil) and 77% in assay [4].
On to `CC(=O)N1C[C@H]2C[C@@H]1CN2C(=O)c1cc2cc(Oc3nc4ncccc4s3)ccc2o1` [Example 366, (1R,4R)-1-{5-[5-(Thiazolo[4,5-b]pyridin-2-yloxy)-benzofuran-2-carbonyl]-2,5-diaza-bicyclo[2.2.1]hept-2-yl}-ethanone], for which the results for the IC50 in assay [1] (setting [5]) and in assay [2] (setting [6]) were 20 nM and 61 nM, respectively. In addition, the inhibition at 30 mg/kg came to 50% in assay [3] (setting [7]) and 78% in assay [4].
The corresponding values for `CC(=O)N[C@@H]1C[C@H]2CC[C@@H](C1)N2Cc1cc2ccc(Oc3nc4ncccc4s3)cc2o1` [Example 106, meso-exo-N-{8-[6-(Thiazolo[4,5-b]pyridin-2-yloxy)-benzofuran-2-ylmethyl]-8-aza-bicyclo[3.2.1]oct-3-yl}-acetamide] are 7 nM, 14 nM, 81% and 85%.
As for `CC(=O)N1C[C@H]2C[C@@H]1CN2Cc1coc2cc(Oc3nc4ncccc4s3)ccc12` [Example 157, (1R,4R)-1-{5-[6-(Thiazolo[4,5-b]pyridin-2-yloxy)-benzofuran-3-ylmethyl]-2,5-diaza-bicyclo[2.2.1]hept-2-yl}-ethanone], the figures for the IC50 in assay [1] (setting [5]) and in assay [2] (setting [6]) were 8 nM and 16 nM, respectively. In addition, the results for the inhibition at 30 mg/kg in assay [3] (setting [7]) and in assay [4] were 93% and 97%, respectively.
The corresponding values for `CC(=O)N1C[C@@H]2C[C@H]1CN2Cc1cc2cc(Oc3nc4ncccc4s3)ccc2o1` [Example 95, (1S,4S)-1-{5-[5-(Thiazolo[4,5-b]pyridin-2-yloxy)-benzofuran-2-ylmethyl]-2,5-diaza-bicyclo[2.2.1]hept-2-yl}-ethanone] are 5 nM, 26 nM, 79% and 80%.
The corresponding values for `NC(=O)N1C[C@@H]2C[C@H]1CN2Cc1cc2cc(Oc3nc4ncccc4s3)ccc2o1` [Example 100, (1S,4S)-5-[5-(Thiazolo[4,5-b]pyridin-2-yloxy)-benzofuran-2-ylmethyl]-2,5-diaza-bicyclo[2.2.1]heptane-2-carboxylic acid amide] are 69 nM, 160 nM, 33% and 44%.
